We go through three substances from US20210052701A1, “Methods of Treating Vascular Leakage Using CXCL12 Peptides” (The Medical College of Wisconsin, Inc., priority 2018, published 2021).

Read-outs that look alike come from different tables or passages of the source.

Test [1] deals with T1, ACKR3 (Homo sapiens, UniProt P25106).
T1 construct: host or cells: HTLA cells (HEK293 line stably expressing a tTA-dependent luciferase reporter and a β-arrestin2-TEV fusion gene)
Put plainly: Presto-Tango β-arrestin 2 recruitment assay for ACKR3. It counts as cell-based. On the procedure:
(§1) FIGS. 6A-6F show Presto-Tango β-arrestin 2 recruitment assays for CXCR4 (A-C) and ACKR3 (D-F). RLU %: % of the luminescence signal for 1 μM CXCL12α. N=9 for CXCL12a and n=3 for all other proteins.
(§2) Presto-Tango β-arrestin 2 recruitment assay—The PRESTO-Tango (parallel receptorome expression and screening via transcriptional out-put, with transcriptional activation following arrestin translocation) assay was performed as recently described. The Tango plasmids were a gift from Dr. Bryan Roth (all from Addgene). HTLA cells (2.5×10^5/well) were seeded in a 6-well plate and transfected with 1.5 μg of the Tango plasmids using Lipofectamine 3000 (ThermoScientific). The following day, transfected HTLA cells (1×10^5 cells/well) were plated onto Poly-L-Lysine pre-coated 96-well micro-plates and allowed to attach to the plate surface for at least 4 hours prior to treatment. Proteins used for treatment were prepared in twice the final concentration in culture media, added at a 1:1 vol/vol ratio and incubated overnight at 37° C., 5% CO2 in a humidified environment. The following morning, media was removed from cell culture plates and replaced with a 100 μL 1:5 mixture of Bright-Glo (Promega) and 1×HBSS, 20 mM HEPES solution. Plates were then incubated at room temperature before measuring luminescence on a Biotek Synergy II plate reader.
A general note: Activated receptors often draw arrestin, which recruitment assays turn into a signal.

In test [2] the target is T2, CXCR4 (Homo sapiens, UniProt P61073).
T2 construct: host or cells: HTLA cells (HEK293 line stably expressing a tTA-dependent luciferase reporter and a β-arrestin2-TEV fusion gene)
T2 sequence (P61073 whole entry, the tested form may be a part): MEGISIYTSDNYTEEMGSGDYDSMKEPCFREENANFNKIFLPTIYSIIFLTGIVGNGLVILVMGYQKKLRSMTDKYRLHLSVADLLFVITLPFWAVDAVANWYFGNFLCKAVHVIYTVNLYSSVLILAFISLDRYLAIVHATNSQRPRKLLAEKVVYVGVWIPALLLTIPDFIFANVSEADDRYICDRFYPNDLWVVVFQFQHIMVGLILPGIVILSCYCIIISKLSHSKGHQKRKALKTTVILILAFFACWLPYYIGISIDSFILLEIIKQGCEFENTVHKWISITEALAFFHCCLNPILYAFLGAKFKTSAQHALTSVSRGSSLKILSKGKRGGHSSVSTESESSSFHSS
Put plainly: Presto-Tango β-arrestin 2 recruitment assay for CXCR4. Type of test: cell-based. As to the method: as §1, §2

In test [3] the test system is hPPAEC. Description: Effects of CXCR4 agonists / CXCL12 variants on thrombin-induced impairment of hPPAEC monolayer permeability. The note with it: thrombin 35 nM, after 10 min 0.05-50 nM protein. It counts as cell-based, human. On the procedure:
FIGS. 3A-3D show effects of CXCL12 and ubiquitin on thrombin-induced impairment of hPPAEC monolayer permeability. hPPAEC were grown to a confluent monolayer on collagen-coated permeable membranes. (A) hPPAEC were pre-treated with vehicle, 100 nM of CXCL12 or ubiquitin for 10 minutes, as indicated, and then exposed to thrombin (50 nM), followed by the addition of FITC-dextran. Vehicle: no thrombin. Endothelial permeability was assessed by measuring the amount of FITC-dextran that permeated through the cell monolayer. No cells: 100% permeability (open circles). RFU: Relative fluorescence units. N=3 in quadruplicate. *: p<0.05 vs. vehicle/thrombin. (B-D) hPPAEC were exposed to 35 nM of thrombin or vehicle. After 10 min, thrombin-exposed cells were treated with vehicle, CXCL12 (50 nM) and/or AMD3100 (10 μM) (B), with vehicle, ubiquitin (50 nM) and/or AMD3100 (10 μM) (C) or with various concentrations of ubiquitin (D) followed by the addition of FITC-dextran. The experimental conditions are indicated. Endothelial permeability was assessed by measuring the amount of FITC-dextran that permeated through the cell monolayer. RFU: Relative fluorescence units. N=3 in quadruplicate. *: p<0.05 vs. thrombin/vehicle (2-way ANOVA/Bonferroni's multiple comparison post hoc test).
FIGS. 7A-7D show dose-dependent effects of CXCL12α/β, CXCL12 (3-68) and CXCL12 mutants K27A/R41A/R47A, R47E and S-S4V on thrombin-induced impairment of hPPAEC monolayer permeability. hPPAEC cells were grown to a confluent monolayer on collagen-coated permeable membranes. hPPAEC were then exposed to 35 nM of thrombin. After 10 min, thrombin-exposed cells were treated with vehicle or 50 nM (A), 5 nM (B), 0.5 nM (C) or 0.05 nM (D) of the various proteins, as indicated. In (D) 5 nM CXCL12a was used as a positive control. N=3 in quadruplicate.
FIGS. 8A-8D show dose-dependent effects of CXCL12α, CXCL121 and CXCL122 on thrombin-induced impairment of hPPAEC monolayer permeability. hPPAEC cells were grown to a confluent monolayer on collagen-coated permeable membranes. hPPAEC were then exposed to 35 nM of thrombin. After 10 min, thrombin-exposed cells were treated with vehicle or 50 nM (A), 5 nM (B), 0.5 nM (C) or 0.05 nM (D) of the various proteins, as indicated. In (D) 5 nM CXCL12α was used as a positive control. N=3 in quadruplicate.
FIGS. 9A-9B show inhibition of thrombin-induced hyper-permeability of hPPAEC by CXCL12/CXCL12 variants. % inhibition: % inhibition of thrombin-induced hyperpermeability. Data from FIGS. 7 and 8 at t=255 min. N=3 in quadruplicate. *: p<0.05 vs. CXCL12a (2-way ANOVA/Bonferroni's multiple comparison post hoc test).
(§3) In vitro vascular permeability assays—Permeability assays were obtained from Millipore (ECM642) and performed as per manufacturer's instructions. In brief, 96-well collagen-coated permeability assay plates were pre-hydrated for 15 min, 5×10^5 cells were seeded on each well and grown to a confluent monolayer for 48 hours. Fluorescein isothiocyanate (FITC)-dextran (20 μg/mL) was then added on top of the monolayer and the amount of FITC-dextran that permeated through the monolayer was quantified by measuring fluorescence in a Synergy 2 Multi-mode Microplate Reader (BioTek, Winooski, Vt.) at various time points over a 255 min time period.

Test [4] relates to HULEC-5a. Put plainly: Thrombin dose-response in HULEC-5a monolayer permeability assay. It counts as cell-based, human. The note with it: read-out: EC50 for thrombin-induced impairment of HULEC-5a barrier function. On the procedure:
FIGS. 4A-4D show effects of CXCL12 and ubiquitin on thrombin-induced impairment of HULEC-5a monolayer permeability. (A) HULEC-5a were grown to a confluent monolayer on collagen-coated permeable membranes and then exposed to different concentration of thrombin for 10 min, followed by the addition of FITC-dextran. Endothelial permeability was assessed by measuring the amount of FITC-dextran that permeated through the cell monolayer. No cells: 100% permeability. RFU: Relative fluorescence units. N=3 in quadruplicate. (B) Dose-response curves for thrombin-induced permeability, data from A. 100% permeability=permeability in the absence of HULEC-5a. Open squares: Permeability at t=55 min. Light grey squares: Permeability at t=135 min. Dark grey squares: Permeability at t=255 min. (C/D) HULEC-5a were grown to a confluent monolayer on collagen-coated permeable membranes and then exposed to 50 nM of thrombin or vehicle. After 10 min, thrombin-exposed cells were treated with vehicle, CXCL12 (50 nM) (C) or ubiquitin (50 nM) (D), followed by the addition of FITC-dextran. The experimental conditions are indicated. Endothelial permeability was assessed by measuring the amount of FITC-dextran that permeated through the cell monolayer. RFU: Relative fluorescence units. N=3 in quadruplicate. *: p<0.05 vs. thrombin/vehicle (2-way ANOVA/Bonferroni's multiple comparison post hoc test).
as §3

For test [5], the system named is hPPAEC. Put plainly: Thrombin dose-response in hPPAEC monolayer permeability assay. Type of test: cell-based, human. The note with it: for EC50: read-out: EC50 for thrombin-induced impairment of hPPAEC barrier function; for maximal impairment of endothelial barrier function: 100% = permeability in the absence of hPPAEC. On the procedure:
FIGS. 2A-2B show impairment of hPPAEC monolayer permeability by thrombin. (A) hPPAEC were grown to a confluent monolayer on collagen-coated permeable membranes and then exposed to different concentration of thrombin for 10 min, followed by the addition of FITC-dextran. Endothelial permeability was assessed by measuring the amount of FITC-dextran that permeated through the cell monolayer. No cells: 100% permeability. RFU: Relative fluorescence units. N=3 in quadruplicate. (B) Dose-response curves for thrombin-induced permeability, data from A. 100% permeability=permeability in the absence of hPPAEC. Open squares: Permeability at t=55 min. Light grey squares: Permeability at t=135 min. Dark grey squares: Permeability at t=255 min. Dose-response curves were generated using nonlinear regression analyses.
as §3
Data analysis—Data are expressed as mean±SEM from n independent experiments that were performed on different days. Data were analyzed with unpaired Student's t test, one- or two-way analyses of variance with Bonferroni's multiple comparison post hoc test, as appropriate. Dose-response curves were generated using nonlinear regression analyses. All analyses were performed with the GraphPad-Prism 7 software. A two-tailed P<0.05 was considered significant.

T1 sequence (P25106 whole entry, the tested form may be a part): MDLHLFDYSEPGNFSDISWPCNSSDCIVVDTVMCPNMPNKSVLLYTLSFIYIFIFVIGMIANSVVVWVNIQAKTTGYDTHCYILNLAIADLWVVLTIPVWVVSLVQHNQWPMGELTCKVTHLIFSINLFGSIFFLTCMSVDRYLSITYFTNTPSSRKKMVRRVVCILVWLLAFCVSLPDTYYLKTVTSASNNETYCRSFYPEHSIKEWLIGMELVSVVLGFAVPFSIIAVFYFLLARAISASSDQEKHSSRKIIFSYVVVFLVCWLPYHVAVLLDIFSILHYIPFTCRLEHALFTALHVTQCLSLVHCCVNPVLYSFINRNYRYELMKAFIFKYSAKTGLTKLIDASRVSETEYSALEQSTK

As to “CXCL12 (3-68): truncated CXCL12 (3-68), N-terminal truncated”, the “efficacy for β-arrestin 2 recruitment to ACKR3” value in test [1] is given as “significantly reduced”. In addition, in test [2] (top plateau, % of signal for 1 μM CXCL12α), the “efficacy to recruit β-arrestin 2 to CXCR4” value was “lacked relevant CXCR4 activity”. Besides, in test [3], the “effect on thrombin-mediated impairment of hPPAEC barrier function” value is recorded as “did not attenuate thrombin-induced impairment of hPPAEC barrier function”.
For the substance “CXCL12 R47E: CXCL12 mutant which activates CXCR4 with reduced potency”, the “ACKR3 activity (in words)” value in test [1] is on record as “retains ACKR3 activity comparable to wild type proteins”. In addition, the “potency (EC50) to recruit β-arrestin 2 to CXCR4, compared with CXCL12α” value in test [2] was “significantly lower than the potency of CXCL12α”.
As a reminder, the EC50 is the concentration at which the effect is half-maximal. As to thrombin, the EC50 in test [4] (after 55 min) was found to be 0.064 ± 0.007 µM; in test [4] (after 135 min), 0.064 ± 0.006 µM; in test [4] (after 255 min), 0.057 ± 0.005 µM; in test [5] (after 55 min) it was 0.03 ± 0.002 µM; in test [5] (after 135 min), 0.033 ± 0.002 µM; in test [5] (after 255 min) it was 0.036 ± 0.002 µM. Besides, the “maximal impairment of endothelial barrier function” value in test [5] (at 55 min) is listed as 49±3%; in test [5] (at 135 min), 59±4%; in test [5] (at 255 min), 72±4%. Moreover, the “time to reach plateau for the permeability-inducing effects” value in test [5] (thrombin 20 nM) was 55 min; in test [5] (thrombin 40 nM), 135 min; in test [5] (thrombin 50 nM), 255 min; in test [5] (thrombin 100 nM) it was 255 min.
